{"source": "patent US20160045529A1", "about": "“Pharmaceutical Compositions Containing Palmitoylethanolamide And Cytidine-Diphosphocholine And Methods Of Treatment Therewith” (EPITECH GROUP S.R.L., priority 2014, published 2016)", "key": {"[1]": {"tested_on": "middle cerebral artery occlusion in rats", "experiment": "Middle cerebral artery occlusion by ligation in rats, infarction area", "type": "in vivo", "details": "MCAo, suspended in CMC 1.5%; for % Infarction Area: Only CMC = 100.00; for Infarction Area in mm^2: Only CMC control 38.5", "source_text": "Brain Res. 2012 Oct 5;1477:45-58]. Using such a method the maximum ineffective dose of the two substances, ultramicronized palmitoylethanolamide and cytidinediphosphocholine, administered separately orally suspended in carboxymethyl cellulose at 1.5% was initially sought. In the maximum ineffective doses found, the two substances were then mixed and administered together again suspended in CMC at 1.5%. The results obtained are collected in the following table 1 and the data of the synergic association between PEA and Citicoline are presented in FIGS. 1A-1B and FIGS. 2A-2B. FIGS. 1A-1B show images of coronal sections after occlusion of the middle cerebral artery (MCAo) in the absence (FIG. 1A), or in the presence of the combined treatment described above (FIG. 1B). FIG. 2 highlights the detected measurements of the infarctual area (FIG. 2A) and volume (FIG. 2B) in the absence or in the presence of the treatment."}, "[2]": {"tested_on": "dementia from damage due to beta amyloid", "details": "preclinical, optimal dose of 10 mg/kg; cited from earlier work"}, "cranial trauma model": {"tested_on": "cranial trauma model", "details": "preclinical, optimal dose of 10 mg/kg; cited from earlier work"}, "[3]": {"tested_on": "stroke model from ligation of the middle cerebral artery", "details": "preclinical, optimal dose of 10 mg/kg; cited from earlier work"}}, "data": [{"compound": "C[N+](C)(C)CCOP(=O)(O)OP(=O)([O-])OC[C@H]1O[C@@H](n2ccc(N)nc2=O)[C@H](O)[C@@H]1O", "note": "[Citicoline, Cytidine-diphosphocholine]", "values": [{"measurement": "% Infarction Area", "setting": "[1]; 50 mg/kg orally", "value": 99.48, "unit": "%"}, {"measurement": "Infarction Area in mm^2", "setting": "[1]; 50 mg/kg orally", "value": 38.3, "unit": "mm^2"}]}, {"compound": "CCCCCCCCCCCCCCCC(=O)NCCO", "note": "[PEA-um, palmitoylethanolamide]", "values": [{"measurement": "% Infarction Area", "setting": "[1]; 1 mg/kg orally", "value": 99.22, "unit": "%"}, {"measurement": "Infarction Area in mm^2", "setting": "[1]; 1 mg/kg orally", "value": 38.2, "unit": "mm^2"}]}, {"compound": "CCCCCCCCCCCCCCCC(=O)NCCO", "note": "[palmitoylethanolamide]", "values": [{"measurement": "effect in the model of dementia from damage due to beta amyloid", "setting": "[2]", "value": "substantial effect"}, {"measurement": "effect in the cranial trauma model", "setting": "cranial trauma model", "value": "substantial effect"}, {"measurement": "effect in the stroke model", "setting": "[3]", "value": "substantial effect"}]}]}
